# Test results taken from patent publication US20090318492A1, “INDOLE COMPOUNDS HAVING C4-ACIDIC SUBSTITUENTS AND USE THEREOF AS PHOSPHOLIPASE-A2 INHIBITORS” (priority 2005, published 2009).
# pIC50: −log10 of the molar value.
# Key:
# [1] = target: T1, Porcine group 1B phospholipase A2 (pps PLA2) (Sus scrofa, UniProt P00592); test: Example 8 fluorimetric PLA2 inhibition assay (PPyrPM), porcine enzyme; assay type: biochemical
# T1 construct: purchased
# From the text: In this example, a fluorimetric assay procedure was used to evaluate the indole and indole-related compounds of the invention as inhibitors of group 1B phospholipase A2 (PLA2) from human, mouse and porcine. A description of this assay is found in articles: Leslie, C C and Gelb, M H (2004) Methods in Molecular Biology “Assaying phospholipase A2 activity”, 284:229-242; Singer, A G, et al. (2002) Journal of Biological Chemistry “Interfacial kinetic and binding properties of the complete set of human and mouse groups I, II, V, X, and XII secreted phospholipases A2”, 277:48535-48549, which are incorporated herein as references.
# In general, this assay used a phosphatidylmethanol substrate with a pyrene fluorophore on the terminal end of the sn-2 fatty acyl chain. […] The effect of a given inhibitor and inhibitor concentration on human, mouse and porcine phospholipase was determined. […]
# The following procedure was performed to evaluate the inhibitory potency of the evaluated compounds. • 1. […] The fluorescence was read using an excitation of 342 nm and an emission of 395 nm.
# Evaluated compounds were tested in duplicate and their values were averaged to plot the inhibition curve and calculate the IC50. […] The IC50 was calculated using the BioDataFit 1.02 (Four Parameter Model) software package. […]
# [2] = system: C57BL/6J mouse model of obesity; test: Example 10 mouse diet-induced obesity; assay type: in vivo; settings: low fat control diet (D12328) with vs without test article
# From the text: The high-fat diet-fed C57BL/6J mouse model of human diabetes, originally introduced by Surwit and colleagues (Surwit, R S, et al. (1988) “Diet-induced type […] diabetes in C57BL/6J mice”, Diabetes 37: 1163-1167) is a widely accepted, clinically relevant, polygenic model that induces obesity, dyslipidemia, glucose- and insulin-resistance as early as 3 weeks after commencing the high fat diet (Winzell, M S and Ahren, B (2004) “The high-fat diet-fed mouse: a model for studying mechanisms and treatment of impaired glucose tolerance and type 2 diabetes”, Diabetes 53 Suppl 3: S215-219). This model was used to investigate the effects of indole and indole-related Test Articles. Avandia (rosiglitazone) was used as a control Test Article. […]
# In these studies and the accompanying figures, Diet D12328 from Research Diets is referred to as the “Low Fat” or Control diet/chow, while Diet D12331 from Research Diets is referred to as the “High Fat” diet. […] The Test Article content was calculated such that ad libitum consumption by the animals would deliver doses (in mg of Test Article per kg animal weight per day) approximating those listed in Table 5.
# Animals were maintained on the diets for up to eleven weeks. Body weights were recorded weekly. […] The serum was analyzed for glucose, total cholesterol, triglycerides (TG) and lysophospholipid (LPC) content. […]
# T1 sequence (P00592 23-146): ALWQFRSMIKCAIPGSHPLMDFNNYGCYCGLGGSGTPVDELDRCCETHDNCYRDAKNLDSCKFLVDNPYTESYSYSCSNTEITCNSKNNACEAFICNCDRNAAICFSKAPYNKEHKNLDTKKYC
structure (smiles),measurement,setting,value
"Cc1c(C(=O)C(N)=O)c2c(OCC(=O)NS(=O)(=O)CCCC(=O)O)cccc2n1Cc1ccccc1 [ILY-IV-40, 4-[2-(3-Aminooxalyl-1-benzyl-2-methyl-1H-indol-4-yloxy)-acetylsulfamoyl]-butyric acid]",pIC50,[1],6.00
same,effect in animals fed a low fat control diet,[2],No or little effect
